# In patent publication US7723323B2, “Pharmaceutical use of fused 1,2,4-triazoles” (High Point Pharmaceuticals, LLC, priority 2003, dated 2010):
# Molecular target: T1, h-11βHSD1 (Homo sapiens, UniProt P28845)
# T1 construct: made in house; host or cells: yeast (extract of transformed yeast)
# Experiment: 11βHSD1 enzyme assay (SPA)
# Assay type: biochemical
# Conditions: extract of yeast transformed with h-11βHSD1; 120 nM 3H-cortisone, 4 mM β-NADPH, 60 min at 30° C.
# Method: ^3H-cortisone and anti-rabbit Ig coated scintillation proximity assay (SPA) beads were purchased from Amersham Pharmacia Biotech, β-NADPH was from Sigma and rabbit anti-cortisol antibodies were from Fitzgerald. An extract of yeast transformed with h-11βHSD1 (Hult et al., FEBS Lett. 441, 25 (1998)) was used as the source of enzyme. The test compounds were dissolved in DMSO (10 mM). All dilutions were performed in a buffer containing 50 mM TRIS-HCl (Sigma Chemical Co), 4 mM EDTA (Sigma Chemical Co), 0.1% BSA (Sigma Chemical Co), 0.01% Tween-20 (Sigma Chemical Co) and 0.005% bacitracin (Novo Nordisk A/S), pH=7.4. Optiplate 96 wells plates were supplied by Packard. The amount of ^3H-cortisol bound to the SPA beads was measured on TopCount NXT, Packard.
# h-11βHSD1, 120 nM ^3H-cortisone, 4 mM β-NADPH, antibody (1:200), serial dilutions of test compound and SPA particles (2 mg/well) were added to the wells. The reaction was initiated by mixing the different components and was allowed to proceed under shaking for 60 min at 30° C. […] Data was analysed using GraphPad Prism software.
# T1 sequence (P28845 whole entry): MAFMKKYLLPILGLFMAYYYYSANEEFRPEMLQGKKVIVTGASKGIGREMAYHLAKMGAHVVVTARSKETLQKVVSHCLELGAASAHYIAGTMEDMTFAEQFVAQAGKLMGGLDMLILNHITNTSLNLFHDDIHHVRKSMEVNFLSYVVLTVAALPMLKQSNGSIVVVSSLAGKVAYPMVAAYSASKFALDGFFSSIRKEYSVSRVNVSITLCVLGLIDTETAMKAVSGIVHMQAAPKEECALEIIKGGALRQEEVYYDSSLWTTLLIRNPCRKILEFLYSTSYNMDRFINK
row,IC50,SMILES
1,230 nM,"Brc1ccccc1-c1nnc2n1CCCCC2 [Example 1, 3-(2-Bromo-phenyl)-6,7,8,9-tetrahydro-5H-[1,2,4]triazolo[4,3-a]azepine]"
2,110 nM,c1ccc(OCc2ccccc2-c2nnc3n2CCCCC3)cc1 [Example 1-a]
